Data: patent US9359308B2, “Pyrazine kinase inhibitors” (Portola Pharmaceuticals, Inc., priority 2011, dated 2016)

Target: T1, full length active recombinant SYK enzyme (Homo sapiens, UniProt P43405)
T1 construct: full length active recombinant SYK enzyme (Millipore, Calif.); purchased Millipore
Test: Inhibition of Syk tyrosine phosphorylation activity (LANCE TR-FRET kinase assay)
Format: biochemical
Conditions: activity in the Syk assays, class symbols
Method in brief: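 1 nM full-length active recombinant SYK phosphorylated 550 nM biotin-DEEDYESP-OH with 100 μM ATP in 50 mM Tris pH 7.5, 5 mM MgCl2, 1 mM DTT and 3% DMSO for 1 h at room temperature. After EDTA quench, Eu-anti-phosphotyrosine/SA-APC TR-FRET was read after 1 h. IC50s came from non-linear regression.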

SMILES | IC50 [nM]
CCc1ccc(Nc2nc(N[C@@H]3CCCC(F)(F)[C@@H]3N)cnc2C(N)=O)cn1 [Example 343, 5-((1R,2R)-2-amino-3,3-difluorocyclohexylamino)-3-(6-ethylpyridin-3-ylamino)pyrazine-2-carboxamide] | 100 to 1000
CC(C)C[C@@H](Nc1cnc(C(N)=O)c(Nc2ccc(N(C)C)nc2)n1)C(N)=O [Example 313, (R)-5-(1-amino-4-methyl-1-oxopentan-2-ylamino)-3-(6-(dimethylamino)pyridin-3-ylamino)pyrazine-2-carboxamide] | 10 to 100
CC[C@@H](Nc1cnc(C(N)=O)c(Nc2ccc(N3CCC3)nc2)n1)C(N)=O [Example 319, (R)-5-(1-amino-1-oxobutan-2-ylamino)-3-(6-(azetidin-1-yl)pyridin-3-ylamino)pyrazine-2-carboxamide] | 10 to 100
NC(=O)c1ncc(N[C@@H]2CCCC[C@@H]2N)nc1Nc1ccc(F)nc1 [Example 304, 5-((1R,2S)-2-aminocyclohexylamino)-3-(6-fluoropyridin-3-ylamino)pyrazine-2-carboxamide] | 10 to 100
CC[C@@H](Nc1cnc(C(N)=O)c(Nc2cncc(C)c2)n1)C(N)=O [Example 177, (R)-5-(1-amino-1-oxobutan-2-ylamino)-3-(5-methylpyridin-3-ylamino)pyrazine-2-carboxamide] | 10 to 100
NC(=O)c1ncc(Nc2cccc(-n3nccn3)c2)nc1N[C@@H]1CCCC[C@@H]1N [Example 96, 5-(3-(2H-1,2,3-triazol-2-yl)phenylamino)-3-((1R,2S)-2-aminocyclohexylamino)pyrazine-2-carboxamide] | 10 to 100
NC(=O)CNc1cnc(C(N)=O)c(Nc2ccc3ncccc3c2)n1 [Example 382, 5-(2-amino-2-oxoethylamino)-3-(quinolin-6-ylamino)pyrazine-2-carboxamide] | 10 to 100
CCc1cc(Nc2nc(N[C@@H]3CCCC(F)(F)[C@@H]3N)cnc2C(N)=O)ccn1 [Example 355, 5-((1R,2R)-2-amino-3,3-difluorocyclohexylamino)-3-(2-ethylpyridin-4-ylamino)pyrazine-2-carboxamide] | 10 to 100
Cc1ccc(Nc2nc(N[C@H](CC(C)C)C(N)=O)cnc2C(N)=O)cn1 [Example 86, (R)-5-(1-amino-4-methyl-1-oxopentan-2-ylamino)-3-(6-methylpyridin-3-ylamino)pyrazine-2-carboxamide] | 10 to 100
CC[C@@H](Nc1cnc(C(N)=O)c(Nc2ccc(OCC(F)(F)F)nc2)n1)C(N)=O [Example 316, (R)-5-(1-amino-1-oxobutan-2-ylamino)-3-(6-(2,2,2-trifluoroethoxy)pyridin-3-ylamino)pyrazine-2-carboxamide] | 10 to 100
NC(=O)c1ncc(N[C@@H]2CCCC(F)(F)[C@@H]2N)nc1Nc1ccnc2ccccc12 [Example 366, 5-((1R,2R)-2-amino-3,3-difluorocyclohexylamino)-3-(quinolin-4-ylamino)pyrazine-2-carboxamide] | 10 to 100
NC(=O)c1ncc(N[C@@H]2CCCC[C@@H]2N)nc1N[C@@H]1COc2ccccc2C1 [Example 416, 5-(((1R,2S)-2-aminocyclohexyl)amino)-3-((S)-chroman-3-ylamino)pyrazine-2-carboxamide] | 100 to 1000
Cc1cc(Nc2nc(N[C@H](CCS(C)(=O)=O)C(N)=O)cnc2C(N)=O)sn1 [Example 400, (R)-5-(1-amino-4-(methylsulfonyl)-1-oxobutan-2-ylamino)-3-(3-methylisothiazol-5-ylamino)pyrazine-2-carboxamide] | 10 to 100

Results, then the compound that gave them:

IC50 [nM] | SMILES
1 to 10 | Cc1ccc(Nc2nc(N[C@@H]3CCCC(F)(F)[C@@H]3N)cnc2C(N)=O)cc1C [Example 169, 5-((1R,2R)-2-amino-3,3-difluorocyclohexylamino)-3-(3,4-dimethylphenylamino)pyrazine-2-carboxamide]
10 to 100 | NC(=O)c1ncc(N[C@@H]2CCCC[C@@H]2N)nc1Nc1cc(CN2CCOCC2)ns1 [Example 255, 5-((1R,2S)-2-aminocyclohexylamino)-3-(3-(morpholinomethyl)isothiazol-5-ylamino)pyrazine-2-carboxamide]
1 to 10 | NC(=O)c1ncc(N[C@@H]2CCCC(F)(F)[C@@H]2N)nc1Nc1ccc2c(c1)COC2 [Example 452, 5-(((1R,2R)-2-amino-3,3-difluorocyclohexyl)amino)-3-((1,3-dihydroisobenzofuran-5-yl)amino)pyrazine-2-carboxamide]
1 to 10 | NC(=O)c1ncc(N[C@@H]2CCCC[C@@H]2N)nc1Nc1cnc2cccnc2c1 [Example 419, 3-((1,5-naphthyridin-3-yl)amino)-5-(((1R,2S)-2-aminocyclohexyl)amino)pyrazine-2-carboxamide]
10 to 100 | CC[C@@H](Nc1nc(Nc2cc(C)ns2)c(C(N)=O)nc1Cl)C(N)=O [Example 137, (R)-5-((1-amino-1-oxobutan-2-yl)amino)-6-chloro-3-((3-methylisothiazol-5-yl)amino)pyrazine-2-carboxamide]
1 to 10 | COc1cc(Nc2nc(N[C@H](CC(C)(C)C)C(N)=O)cnc2C(N)=O)ccn1 [Example 256, (R)-5-(1-amino-4,4-dimethyl-1-oxopentan-2-ylamino)-3-(2-methoxypyridin-4-ylamino)pyrazine-2-carboxamide]
1 to 10 | C[C@@H](Nc1cnc(C(N)=O)c(Nc2ccc3ncccc3c2)n1)C(N)=O [Example 4, (R)-5-(1-amino-1-oxopropan-2-ylamino)-3-(quinolin-6-ylamino)pyrazine-2-carboxamide]
1 to 10 | NC(=O)c1ncc(N[C@@H]2CCCC[C@@H]2N)nc1Nc1cc(-n2cccn2)cc(-n2cccn2)c1 [Example 44, 5-((1R,2S)-2-aminocyclohexylamino)-3-(3,5-di(1H-pyrazol-1-yl)phenylamino)pyrazine-2-carboxamide]
1 to 10 | NC(=O)c1ncc(N[C@@H]2CCOC[C@@H]2N)nc1Nc1cccc(-c2ncccn2)c1 [Example 82, 5-((3R,4R)-3-aminotetrahydro-2H-pyran-4-ylamino)-3-(3-(pyrimidin-2-yl)phenylamino)pyrazine-2-carboxamide]
1 to 10 | Cc1cncc(Nc2nc(N[C@H](CC3CC3)C(N)=O)cnc2C(N)=O)c1 [Example 99, (R)-5-(1-amino-3-cyclopropyl-1-oxopropan-2-ylamino)-3-(5-methylpyridin-3-ylamino)pyrazine-2-carboxamide]
1 to 10 | CC(C)C[C@@H](Nc1cnc(C(N)=O)c(Nc2ccc(C(N)=O)cc2)n1)C(N)=O [Example 20, (R)-5-(1-amino-4-methyl-1-oxopentan-2-ylamino)-3-(4-carbamoylphenylamino)pyrazine-2-carboxamide]
1 to 10 | NC(=O)c1ncc(N[C@@H](C(N)=O)c2ccccc2)nc1Nc1ccc2ncccc2c1 [Example 33, (R)-5-(2-amino-2-oxo-1-phenylethylamino)-3-(quinolin-6-ylamino)pyrazine-2-carboxamide]
1 to 10 | NC(=O)c1ncc(N[C@H](C2CC2)C2(N)CC2)nc1Nc1cccc(-c2ncccn2)c1 [Example 72, (R)-5-((1-aminocyclopropyl)(cyclopropyl)methylamino)-3-(3-(pyrimidin-2-yl)phenylamino)pyrazine-2-carboxamide]
1 to 10 | NC(=O)c1ccc(Nc2nc(N[C@@H]3CCCC[C@@H]3N)cnc2C(N)=O)cc1 [Example 13, 5-((1R,2S)-2-aminocyclohexylamino)-3-(4-carbamoylphenylamino)pyrazine-2-carboxamide]
